Columns and labels:
[1] = tested on: HT-29 cells; details: HT-29, previously determined NCI values; cited from earlier work
[2] = tested on: NCI-H460 cells; details: NCI-H460, previously determined NCI values; cited from earlier work
[3] = tested on: MCF-7 cells; details: MCF-7, previously determined NCI values; cited from earlier work
[4] = tested on: rats; assay: Blood urea nitrogen (BUN) as measure of renal function (Example 8); type: in vivo; details: rat plasma, 8 mg/kg cisplatin, 9.9 mg/kg carboplatin, 19.6 mg/kg S-9168
Protocol: Methods. Four groups of eight rats were cannulated as described in Example 6. […] The fourth group of rats was dosed with saline. Two rats in each group were sacrificed on days 4, 6, and 8 after treatment and 2 ml of blood were withdrawn. The blood sample was spun at 8000 rpm. for 2 minutes and the plasma was removed. BUN assays were performed using the Sigma Blood Urea Nitrogen Kit (Sigma Diagnostics Co., St. Louis, Mo.; Cat. No. 535-A).

[5] = tested on: rats; assay: Plasma creatinine as measure of renal function (Example 7); type: in vivo; details: rat plasma, 8 mg/kg cisplatin, 9.9 mg/kg carboplatin, 19.6 mg/kg S-9168
Protocol: Methods. Three groups of two rats were cannulated in the jugular vein and allowed to recover for approximately 24 hours. […] Blood samples (1.8 ml) were taken via the jugular vein canal before treatment (day 0) and 1, 2, 3, and 4 days after treatment, spun at 8000 rpm. for 2 minutes, and the plasma was removed. Creatinine assays were performed using the Sigma Creatinine Kit (Sigma Diagnostics Co., St. Louis, Mo.; Cat. No. 555-A) according to the Sigma creatinine assay protocol, in which the difference in color intensity at 500 nm of a sample containing creatinine and alkaline picrate solution before and after acidification is measured. The limit of linearity for the UV spectrophotometer was established by using the calibration curve procedure in the Sigma creatinine assay protocol.
Methods. Four groups of eight rats were cannulated as described in Example 6. […] The fourth group of rats was dosed with saline. Two rats in each group were sacrificed on days 4, 6, and 8 after treatment and 2 ml of blood were withdrawn. The blood sample was spun at 8000 rpm. for 2 minutes and the plasma was removed. Creatinine assays were performed as described in Example 6.

[6] = tested on: OVCAR-3 cells; details: OVCAR-3, previously determined NCI value; cited from earlier work
[7] = tested on: HCT-116 cells; details: HCT-116, previously determined NCI values; cited from earlier work
[8] = tested on: HCT-15 cells; assay: Cytotoxicity assay (sulforhodamine B), HCT-15; type: cell-based
Protocol: (§1) Methods. NCI-H460, HCT-15, OVCAR-3, CACO-2, MCF-7, HT-29, and HCT-116 cells were inoculated into 96 well microtiter plates in 100 microliters of medium at plating densities ranging from 5000 to 40000 cells/well, as given by NCI tables. After cell inoculation, the microtiter plates were incubated at 37° C., 5% CO2, 95% air, and 100% relative humidity for 24 hours. After 24 hours, 2 control plates of each cell line (time zero controls) were fixed by the addition of 30% trichloroacetic acid (TCA, final TCA concentration is 10% w/v). S-9168 was solubilized in saline. […] Additional 4, 10 fold, or ½ log serial dilutions were made to provide a total of five drug concentrations plus controls. Aliquots of 100 microliters of different drug dilutions were added to the appropriate microtiter wells already containing 100 microliters of medium. Following drug addition, the plates were incubated for an additional 48 hours under the same conditions provided above. The assays were terminated by the addition of cold TCA as described above for the time zero controls. The plates were then incubated at 4° C. for at least 60 minutes to fix the cells to the bottom of the plate. […] After staining, unbound dye was removed by washing five times with 1% acetic acid and the plates were allowed to air dry for 12-24 hours at room temperature. […]

[9] = tested on: OVCAR-3 cells; assay: Cytotoxicity assay (sulforhodamine B), OVCAR-3; type: cell-based; details: OVCAR-3, Assay 6, 48 h drug exposure
Protocol: as §1

[10] = tested on: NCI-H460 cells; assay: Cytotoxicity assay (sulforhodamine B), NCI-H460; type: cell-based
Protocol: as §1

[11] = tested on: HCT-15 cells; details: HCT-15, previously determined NCI values; cited from earlier work
[12] = tested on: MCF-7 cells; assay: Cytotoxicity assay (sulforhodamine B), MCF-7; type: cell-based
Protocol: as §1

[13] = tested on: HCT-116 cells; assay: Cytotoxicity assay (sulforhodamine B), HCT-116; type: cell-based; details: HCT-116, Assay 9, 48 h drug exposure
Protocol: as §1

[14] = tested on: HT-29 cells; assay: Cytotoxicity assay (sulforhodamine B), HT-29; type: cell-based; details: HT-29, Assay 8, 48 h drug exposure
Protocol: as §1

SMILES: N.N.O=C([O-])C1(C(=O)[O-])CCC1.[Pt+2] [Carboplatin, cis-diamine[1,1-cyclobutnaedicarboxylate(2-)-O,O′-platinum(II)]
- GI50 (log), NCI values [1]: (−4.41) Pt mg/ml (log)
- GI50 (log), NCI values [2]: (−5.21) Pt mg/ml (log)
- GI50 (log), NCI values [3]: (−4.61) Pt mg/ml (log)
- average BUN level ([4]; day 4): 28.92 mg/dL
- average BUN level ([4]; day 6): 21.59 mg/dL
- average BUN level ([4]; day 8): 25.52 mg/dL
- average creatinine level ([5]; day 4): 0.6659 mg/dL
- average creatinine level ([5]; day 6): 0.7039 mg/dL
- average creatinine level ([5]; day 8): 0.5402 mg/dL
- GI50 (log), NCI value [6]: (−4.91) Pt mg/ml (log)
- GI50 (log), NCI values [7]: (−4.51) Pt mg/ml (log)
- GI50 (log) ([8]; HCT-15, Assay 2, 48 h drug exposure): (−4.31) Pt mg/ml (log)
- GI50 (log) [9]: (−4.82) Pt mg/ml (log)
- GI50 (log) ([10]; NCI-H460, Assay 2, 48 h drug exposure): (−4.96) Pt mg/ml (log)
- GI50 (log), NCI values [11]: (−4.31) Pt mg/ml (log)

SMILES: N.N.[Cl][Pt][Cl] [Cisplatin, cis-diaminedichloroplatinum(II)]
- GI50 (log), NCI values [1]: (−5.82) Pt mg/ml (log)
- GI50 (log) ([12]; MCF-7, Assay 2, 48 h drug exposure): (−5.10) Pt mg/ml (log)
- GI50 (log) ([12]; MCF-7, Assay 7, 48 h drug exposure): (−6.14) Pt mg/ml (log)
- GI50 (log), NCI values [2]: (−6.92) Pt mg/ml (log)
- GI50 (log), NCI values [3]: (−6.22) Pt mg/ml (log)
- GI50 (log) [13]: (−6.13) Pt mg/ml (log)
- GI50 (log), NCI value [6]: (−6.32) Pt mg/ml (log)
- GI50 (log), NCI values [7]: (−6.12) Pt mg/ml (log)
- GI50 (log) [14]: (−5.99) Pt mg/ml (log)
- GI50 (log) ([8]; HCT-15, Assay 5, 48 h drug exposure): (−6.65) Pt mg/ml (log)
- GI50 (log) ([10]; NCI-H460, Assay 1, 48 h drug exposure): (−6.98) Pt mg/ml (log)
- GI50 (log), NCI values [11]: (−5.82) Pt mg/ml (log)
